Results published in publication PMC12380092, “Chemoenzymatic total synthesis of the antibiotic (−)-13-deoxytetrodecamycin using the Diels–Alderase TedJ” (Chemical Science, 2025).

Target: T1, TedJ (Streptomyces sp. WAC04657, UniProt Z9VZN5SQU4)
T1 construct: N-terminal hexa-histidine tag, recombinant in E. coli, purified; homodimer
T1 sequence (Z9VZN5SQU4 20-510): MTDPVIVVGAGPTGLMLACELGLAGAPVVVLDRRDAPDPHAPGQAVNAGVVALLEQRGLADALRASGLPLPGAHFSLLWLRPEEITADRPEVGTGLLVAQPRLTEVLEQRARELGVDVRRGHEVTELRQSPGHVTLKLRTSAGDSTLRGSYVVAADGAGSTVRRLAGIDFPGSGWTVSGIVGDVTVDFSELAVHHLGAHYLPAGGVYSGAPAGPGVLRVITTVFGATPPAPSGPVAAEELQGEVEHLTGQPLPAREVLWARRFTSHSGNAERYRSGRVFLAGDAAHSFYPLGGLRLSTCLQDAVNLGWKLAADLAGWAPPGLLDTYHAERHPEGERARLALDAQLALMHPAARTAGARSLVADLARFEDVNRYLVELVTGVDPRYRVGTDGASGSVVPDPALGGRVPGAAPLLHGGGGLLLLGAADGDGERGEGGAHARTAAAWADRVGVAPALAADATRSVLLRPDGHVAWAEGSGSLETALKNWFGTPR
Assay: X-ray crystal structure ([…] Å); MS of denatured protein; absorbance spectrum
Format: binding
Settings: non-covalently bound, co-purified; proposed structural role

Question: For Cc1cc2nc3c(=O)[nH]c(=O)nc-3n(C[C@H](O)[C@H](O)[C@H](O)COP(=O)(O)OP(=O)(O)OC[C@H]3O[C@@H](n4cnc5c(N)ncnc54)[C@H](O)[C@@H]3O)c2cc1C [FAD], which “X-ray crystal structure (1.6 Å); MS of denatured protein; absorbance spectrum” value is on record?
Answer: showing the enzyme active site and non-covalently bound FAD molecule
